Experiments:
RSV strain A2 = assay: RSV Cellomics assay for RSV A2 antiviral activity (EC50-RSV-Hep2-96-Cellomics), Example Z; assay type: cell-based; settings: human respiratory syncytial virus, HEp-2, 72 h; Hep2 cells infected with RSV strain A2, MOI=0.05, 3 days, RSV F protein immunofluorescence
Experimental: Example Z: RSV Cellomics Assay for RSV A2 Antiviral Activity (EC50-RSV-Hep2-96-Cellomics) 8×10^3 Hep2 cells are seeded into 96 well plates in 100 μL of media (DMEM supplemented with GlutaMAX, 10% FBS and Pen/Strep) and briefly spun at 50×g for 1 minute to attach cells. Cells were further allowed to attach with overnight incubation at 37° C.+5% CO2. The following day, the media was aspirated and 100 μL of fresh DMEM media containing 2% FBS was added. A three-fold dilution series of compounds of interest are then added to the plate using the Tecan D300e dispenser and the plate is normalized to the well with the highest volume of DMSO. The cells are next infected by adding 100 μL of media containing RSV strain A2 at an MOI=0.05 and the plates incubated for 3 days at 37° C.+5% CO2. Following the incubation, the media is removed, and the cells are washed once with 250 μL PBS and fixed with 250 μL ice-cold 100% methanol for 10 minutes at 4 C. The methanol is then removed and the plates air dried for 5 minutes and then washed once with 250 μL PBS to remove any residual methanol. The wells are then blocked 60 μL/well of BlockAid (B10710, Thermo-Fisher) for 1 hour at RT on rocker at which point the blocking buffer is carefully aspirated. Primary antibody against the RSV F protein (MAB 858-1) is then diluted 1:2000 in SuperBlock (37515, Thermo Fisher) and 50 μL of the primary antibody solution is added to each well. The plates are incubated at room temperature for 1 hour with gentle agitation and then washed with 250 μL of PBS-Tween 3 times. A goat anti-mouse AlexaFluor 647 conjugated secondary antibody (Sigma, A21235) is then diluted 1:2000 and Hoescht 33342 (H3570) at 1:1000 in SuperBlock and 50 μL added to the wells for 1 hour at 37° C. After incubation the antibody solution is aspirated, and the wells are then washed with 250 μL of PBS-Tween 3 times. To keep cells from drying out, 100 μL of PBS is added to each well and the plates are sealed with black plate seal. Fluorescence at the 647 nm wavelength is measured using a Cellomics CellInsight CX7 machine. Compound activity is determined as a percentage of the % positive cells (or average intensity) compared to DMSO treated RSV infected well controls following subtraction of uninfected controls. The EC50 values are then calculated using nonlinear regression analysis in GraphPad Prism.

[1] = MT4 CC50 cytotoxicity in uninfected cells (CC50-MT4-384), Example G; assay type: cell-based; settings: human; uninfected MT-4 cells, 4-5 days, Cell-Titer Glo
Experimental: Example G. HEp-2 and MT4 CC50 Cytotoxicity of the compounds was determined in uninfected cells using the cell viability reagent in a similar fashion as described before for other cell types ([…] et al., ANTIMICROB AGENTS CHEMOTHER. 2008, 52(2):655-65). HEp-2 (1.5×10^3 cells/well) and MT-4 (2×10^3 cells/well) cells were plated in 384-well plates and incubated with the appropriate medium containing 3-fold serially diluted compound ranging from 15 nM to 100,000 nM. Cells were cultured for 4-5 days at 37° C. Following the incubation, the cells were allowed to equilibrate to 25° C., and cell viability was determined by adding Cell-Titer Glo viability reagent. The mixture was incubated for 10 min, and the luminescence signal was quantified using an Envision plate reader. Untreated cell and cells treated at 2 μM puromycin (Sigma, St. Louis, MO) serve as 100% and 0% cell viability control, respectively. The percent of cell viability was calculated for each tested compound concentration relative to the 0% and 100% controls and the CC50 value was determined by non-linear regression as a compound concentration reducing the cell viability by 50%.

| Structure (SMILES) | EC50 (RSV strain A2) [nM] | CC50 [1] [nM] |
| --- | --- | --- |
| CC(=O)O[C@H]1[C@H](c2ccc3c(N)ncnn23)O[C@](C#N)(COC(=O)OCC(C)C)[C@H]1OC(C)=O [Compound 1, (2R,3S,4S,5S)-5-(4-aminopyrrolo[2,1-f][1,2,4]triazin-7-yl)-2-cyano-2-(((isobutoxycarbonyl)oxy)methyl)tetrahydrofuran-3,4-diyl diacetate] | 45900 | > 50000 |
| CCC(=O)O[C@H]1[C@H](c2ccc3c(N)ncnn23)O[C@](C#N)(COC(=O)OCC(C)C)[C@H]1OC(=O)CC [Compound 2, (2R,3S,4S,5S)-5-(4-aminopyrrolo[2,1-f][1,2,4]triazin-7-yl)-2-cyano-2-(((isobutoxycarbonyl)oxy)methyl)tetrahydrofuran-3,4-diyl dipropionate] | 49200 | > 50000 |
| CCOC(=O)OC[C@@]1(C#N)O[C@@H](c2ccc3c(N)ncnn23)[C@H](OC(=O)OCC)[C@@H]1OC(=O)OCC [Compound 6, (2R,3S,4S,5S)-5-(4-aminopyrrolo[2,1-f][1,2,4]triazin-7-yl)-2-cyano-2-(((ethoxycarbonyl)oxy)methyl)tetrahydrofuran-3,4-diyl diethyl bis(carbonate)] | 68600 | > 50000 |
| CC(=O)O[C@H]1[C@H](c2ccc3c(N)ncnn23)O[C@](C#N)(COC(=O)OC(C)OC(=O)[C@H](C(C)C)N(C)C)[C@H]1OC(C)=O (stereo partly drawn) [Compound 7, (2R,3S,4S,5S)-5-(4-aminopyrrolo[2,1-f][1,2,4]triazin-7-yl)-2-cyano-2-((8S)-8-isopropyl-5,9-dimethyl-3,7-dioxo-2,4,6-trioxa-9-azadecyl)tetrahydrofuran-3,4-diyl diacetate] |  | > 50000 |

Now from value to molecule, other results behind:

| EC50 (RSV strain A2) [nM] | Structure (SMILES) | CC50 [1] [nM] |
| --- | --- | --- |
| 9740 | N#C[C@]1(CO)O[C@@H](c2ccc3c(N)ncnn23)[C@H](O)[C@@H]1O [Compound 0, (2R,3S,4R,5S)-5-(4-aminopyrrolo[1,2-f][1,2,4]triazin-7-yl)-3,4-dihydroxy-2-(hydroxymethyl)tetrahydrofuran-2-carbonitrile, reference compound] | > 50000 |
| 100000 | CC(=O)O[C@H]1[C@H](c2ccc3c(N)ncnn23)O[C@](C#N)(COC(=O)OC(C)C)[C@H]1OC(C)=O [Compound 3, (2R,3S,4S,5S)-5-(4-aminopyrrolo[2,1-f][1,2,4]triazin-7-yl)-2-cyano-2-(((isopropoxycarbonyl)oxy)methyl)tetrahydrofuran-3,4-diyl diacetate] | > 50000 |
| 54000 | COC(=O)OC[C@@]1(C#N)O[C@@H](c2ccc3c(N)ncnn23)[C@H](OC(C)=O)[C@@H]1OC(C)=O [Compound 4, (2R,3S,4S,5S)-5-(4-aminopyrrolo[2,1-f][1,2,4]triazin-7-yl)-2-cyano-2-(((methoxycarbonyl)oxy)methyl)tetrahydrofuran-3,4-diyl diacetate] | > 50000 |
| 61500 | CCOC(=O)OC[C@@]1(C#N)O[C@@H](c2ccc3c(N)ncnn23)[C@H](OC(C)=O)[C@@H]1OC(C)=O [Compound 5, (2R,3S,4S,5S)-5-(4-aminopyrrolo[2,1-f][1,2,4]triazin-7-yl)-2-cyano-2-(((ethoxycarbonyl)oxy)methyl)tetrahydrofuran-3,4-diyl diacetate] | > 50000 |

From patent US20250084088A1, “ANTIVIRAL COMPOUNDS AND METHODS OF MAKING AND USING THE SAME” (Gilead Sciences, Inc., priority 2023, published 2025)
